Earlier results in US20260248829A1, “PHOSPHOLIPID COMPOSITIONS COMPRISING EPA AND/OR DHA FOR AMELIORATING NEURODEGENERATION AND AGE-RELATED NEURODEGENERATIVE DISORDERS” (Aker BioMarine Human Ingredients AS, priority 2022, published 2026).

Tested on: dopaminergic neurons in the nigro-striatal circuit
Settings: young mice

Structure (SMILES): CC1=C(/C=C/C(C)=C/C=C/C(C)=C/C=C/C=C(C)/C=C/C=C(C)/C=C/C2=C(C)C(=O)[C@@H](O)CC2(C)C)C(C)(C)C[C@H](O)C1=O [astaxanthin]
- protection of dopaminergic neurons: protects
